Read-outs that look alike come from different tables or passages of the source.

Data on eight molecules can be found in PMC5944259 (Evidence-based Complementary and Alternative Medicine : eCAM, 2018).

Data set [1] addresses T1, Acetyl-CoA carboxylase 1 (Homo sapiens, UniProt Q13085).
T1 construct: purchased Proteintech (Shanghai)
As to the kind of experiment: SPR assay ACC1. The class given is binding. Particulars: for Offset / Rmax / χ^2: ACC1. How it is done: In the SPR test, the target proteins were first combined with the CM5 chip. After correction through standard solutions, a series of different concentrations of molecules (0, 2, 4, 8, 16, 32, 64, and 128 μmol/l) were tested for their binding to the protein. Finally, the affinity between the protein and molecule was determined by an array of parameters, such as the Kd values, Rmax, offset, and χ^2.
A general note: In SPR one partner is held on a chip, and binding of the other changes the refractive index at the surface.

Data set [2] addresses T2, Protein kinase C, beta type (Homo sapiens, UniProt P05771).
T2 construct: purchased Proteintech (Shanghai)
Briefly: Enzyme activity test PKC-B (EMSA). Type of data set: biochemical. How it is done: (§1) As there were some kinase proteins in our protein database with different characteristics to other proteins, we used an enzyme activity test to validate the real interactions between the protein and molecule.
(§2) Selected pairs of protein and molecule participated in enzyme activity test, while electrophoretic mobility shirt assay (EMSA) and Lance ultra were conducted in an experiment with […] (100, 50, 25, 12.5, 6.25, 3.12, 1.56, 0.78, and 0.39 μmol/l). Finally, the IC50 (nM) value was used to assess the ability of a molecule to act or inhibit the protein.

The conditions of data set [3]: cited from earlier work.
Data set [4] has as its target T3, Rho-associated protein kinase 1 (Homo sapiens, UniProt Q13464).
T3 construct: purchased Proteintech (Shanghai)
As to the kind of experiment: Enzyme activity test ROCK1 (EMSA). Type of data set: biochemical. Here is the method: as §1, §2

Data set [5] addresses T4, Superoxide dismutase [Mn] (Homo sapiens, UniProt P04179).
T4 construct: purchased Sino Biological (Shanghai)
T4 sequence (P04179 25-222): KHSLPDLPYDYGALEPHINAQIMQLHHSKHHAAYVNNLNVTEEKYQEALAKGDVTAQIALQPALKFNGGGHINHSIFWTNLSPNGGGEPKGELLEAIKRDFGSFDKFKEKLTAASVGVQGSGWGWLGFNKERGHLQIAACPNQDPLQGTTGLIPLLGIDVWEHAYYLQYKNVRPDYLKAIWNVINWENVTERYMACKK
As to the kind of experiment: SPR assay SOD2. Type of data set: binding.

The conditions of data set [6]: database annotation in words, no reference given; cited from earlier work.
For data set [7] the following is noted: database annotation in words, no reference given; cited from earlier work. This is another data set of the same source.
The target in data set [8] is T5, Mammalian target of rapamycin (Homo sapiens, UniProt P42345).
T5 construct: purchased Proteintech (Shanghai)
Briefly: Enzyme activity test mTOR (Lance ultra). Type of data set: biochemical. How it is done: as §1, §2

T3 sequence (Q13464 whole entry): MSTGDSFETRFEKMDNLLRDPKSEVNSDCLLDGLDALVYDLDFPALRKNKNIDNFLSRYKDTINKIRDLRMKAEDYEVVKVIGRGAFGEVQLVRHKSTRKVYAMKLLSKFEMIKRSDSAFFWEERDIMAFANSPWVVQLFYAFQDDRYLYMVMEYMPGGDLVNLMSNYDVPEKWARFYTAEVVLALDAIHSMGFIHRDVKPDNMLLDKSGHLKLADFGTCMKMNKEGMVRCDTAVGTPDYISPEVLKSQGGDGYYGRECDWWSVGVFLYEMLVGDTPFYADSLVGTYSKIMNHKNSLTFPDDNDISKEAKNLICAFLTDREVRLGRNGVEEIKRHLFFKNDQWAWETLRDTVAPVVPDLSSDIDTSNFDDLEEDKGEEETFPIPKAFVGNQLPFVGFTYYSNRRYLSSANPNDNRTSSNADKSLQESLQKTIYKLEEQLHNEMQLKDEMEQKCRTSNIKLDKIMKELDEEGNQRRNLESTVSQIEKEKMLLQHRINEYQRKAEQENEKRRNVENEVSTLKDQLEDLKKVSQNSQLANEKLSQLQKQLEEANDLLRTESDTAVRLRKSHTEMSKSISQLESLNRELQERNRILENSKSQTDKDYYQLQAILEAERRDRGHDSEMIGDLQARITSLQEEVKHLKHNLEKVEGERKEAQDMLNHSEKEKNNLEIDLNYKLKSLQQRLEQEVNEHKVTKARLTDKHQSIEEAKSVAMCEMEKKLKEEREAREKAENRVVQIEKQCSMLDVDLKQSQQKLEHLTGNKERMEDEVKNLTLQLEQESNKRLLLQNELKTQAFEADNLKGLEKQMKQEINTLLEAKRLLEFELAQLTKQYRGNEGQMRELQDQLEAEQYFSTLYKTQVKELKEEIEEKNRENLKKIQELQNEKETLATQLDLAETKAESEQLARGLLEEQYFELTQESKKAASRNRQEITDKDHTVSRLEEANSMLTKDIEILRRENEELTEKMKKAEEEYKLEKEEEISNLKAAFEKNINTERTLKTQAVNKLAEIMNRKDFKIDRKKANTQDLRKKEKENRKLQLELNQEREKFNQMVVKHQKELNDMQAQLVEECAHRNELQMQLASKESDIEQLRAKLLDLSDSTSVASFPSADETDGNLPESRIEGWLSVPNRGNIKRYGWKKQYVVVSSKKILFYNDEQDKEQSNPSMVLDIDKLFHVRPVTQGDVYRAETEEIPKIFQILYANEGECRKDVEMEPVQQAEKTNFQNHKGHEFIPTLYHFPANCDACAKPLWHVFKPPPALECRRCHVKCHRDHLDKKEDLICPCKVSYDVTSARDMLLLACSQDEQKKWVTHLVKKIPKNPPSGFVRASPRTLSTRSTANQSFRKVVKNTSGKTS
T2 sequence (P05771 whole entry): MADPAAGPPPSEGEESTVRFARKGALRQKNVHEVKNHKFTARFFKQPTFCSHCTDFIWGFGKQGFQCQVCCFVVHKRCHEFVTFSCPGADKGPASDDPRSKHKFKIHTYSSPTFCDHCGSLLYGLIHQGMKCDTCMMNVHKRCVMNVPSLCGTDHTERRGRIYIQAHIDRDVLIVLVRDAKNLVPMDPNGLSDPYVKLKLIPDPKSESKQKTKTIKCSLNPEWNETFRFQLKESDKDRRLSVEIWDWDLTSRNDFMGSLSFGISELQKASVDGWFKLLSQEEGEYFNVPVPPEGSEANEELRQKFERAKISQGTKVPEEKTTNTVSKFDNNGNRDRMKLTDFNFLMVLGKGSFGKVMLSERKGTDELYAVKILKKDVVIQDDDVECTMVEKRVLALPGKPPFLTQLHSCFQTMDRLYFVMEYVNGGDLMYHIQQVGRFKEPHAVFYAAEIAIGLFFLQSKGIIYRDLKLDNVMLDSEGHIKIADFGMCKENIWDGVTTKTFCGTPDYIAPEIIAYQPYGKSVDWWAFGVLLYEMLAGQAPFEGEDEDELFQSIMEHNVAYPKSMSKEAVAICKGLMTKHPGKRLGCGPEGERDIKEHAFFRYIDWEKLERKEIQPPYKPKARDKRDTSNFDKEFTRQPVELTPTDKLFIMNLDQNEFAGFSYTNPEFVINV

Usually Kd stands for a measure of binding affinity in units of concentration. As usually defined, the IC50 is the concentration that inhibits the measured activity by half. Read a high IC50 as weaker potency in that assay. For the molecule `COC(=O)C1=CO[C@@H](O[C@@H]2O[C@H](CO)[C@@H](O)[C@H](O)[C@H]2O)[C@@H]2[C@H](C)O[C@@H](O)C[C@H]12` [Morroniside], in data set [1] (SPR), the Offset is −0.2651 RU, the Rmax was 2.204 RU and the “χ^2” value is recorded as 0.0962 RU^2. Besides, in data set [1] (SPR, ACC1 on CM5 chip, read-out: Kd), the Kd was 13.6 µM. Further, the IC50 in data set [2] was > 10 µM. The “absorbed in blood after the oral administration of GDC” value (from here on “absorbed in blood”) in data set [3] is on record as “could be absorbed in blood”. Besides, the IC50 in data set [4] is > 10 µM.

Take `COc1c(O)cc(O)c2c(=O)cc(-c3ccccc3)oc12` [Wogonin]: in data set [5] (SOD2), the Offset is reported as −3.611 RU, the Rmax was 14.3 RU and the “χ^2” value came out at 2.11 RU^2. Also, binding in data set [5] (SOD2 on CM5 chip) was characterised by a dissociation constant (Kd) of 5.08 µM.

For the molecule `OC[C@H]1O[C@@H](O[C@@H]2OC=C[C@H]3[C@H](O)[C@@H]4O[C@]4(CO)[C@@H]23)[C@H](O)[C@@H](O)[C@@H]1O` [catalpol / catalpinoside], the “作用药理 (pharmacological action)” value in data set [6] was “有降糖作用”. Also, the “stability remark (acid, base, high temperature)” value in data set [7] was “酸碱高温下可分解，分解后变黑”.

On to `COc1cc(C(=O)OCCCCNC(=N)N)cc(OC)c1O` [leonurine], for which the “作用药理 (pharmacological action)” value in data set [6] is recorded as “抗血小板作用”.

`C[C@@H]1O[C@@H](OC[C@H]2O[C@@H](Oc3c(-c4ccc(O)c(O)c4)oc4cc(O)cc(O)c4c3=O)[C@H](O)[C@@H](O)[C@@H]2O)[C@H](O)[C@H](O)[C@H]1O` [Rutin]: in data set [3], the “absorbed in blood” value is recorded as “could be absorbed in blood”.

Regarding stachyose, the “作用药理: side effect” value in data set [6] is on record as “胀气副作用，炮制可减少水苏糖的量”.

Regarding `CC(C)(O)[C@@H]1CC[C@](C)([C@H]2[C@@H](O)C[C@@]3(C)[C@@H]4C[C@H](O[C@@H]5O[C@H](CO)[C@@H](O)[C@H](O)[C@H]5O)[C@H]5C(C)(C)[C@@H](O[C@@H]6OC[C@@H](O)[C@H](O)[C@H]6O)CC[C@@]56C[C@@]46CC[C@]23C)O1` [Astragaloside IV], the IC50 in data set [8] is > 10 µM. For the same molecule, the affinity in data set [1], expressed as Kd, was 92.5 µM. Besides, in data set [1] (SPR), the Offset turned out to be 0.2424 RU, the Rmax is 7.856 RU and the “χ^2” value is reported as 0.0243 RU^2. The “作用药理 (pharmacological action)” value in data set [6] is given as “诱导TNF-α分泌，降低直接作用+作用于肝糖调节酶+通过上调Sarco/内质网Ca2 + -ATP酶2的表达。抑制足细胞介导的细胞凋亡的内质网应激”. For the same molecule, in data set [3], the “absorbed in blood” value is “could be absorbed in blood”.

In the case of astragalosideⅤ, the “作用药理 (pharmacological action)” value in data set [6] was “阻碍羧甲基赖氨酸、戊糖苷形成，抑制糖尿病视网膜病变、神经病变进程”.
